The structures appear in SMILES notation. Structures can show the parent of a compound that is named as a salt.

The first assay has as its system IL-2 production. Nature of the assay: Inhibition of IL-2 production in PHA-activated Jurkat cells (ELISA). The class given is cell-based. Conditions: Homo sapiens, Jurkat, 20 h, PHA 2.5 μg/mL, IL-2 ELISA. How it is done:
Jurkat cells were placed in a 96 well plate (0.5 million cells per well in 1% FBS medium) then a test compound of this invention was added at different concentrations. After 10 minutes, the cells were activated with PHA (final concentration 2.5 μg/mL) and incubated for 20 hours at 37° C. under CO2. The final volume was 200 μL. Following incubation, the cells were centrifuged and the supernatants collected and stored at −70° C. prior to assaying for IL-2 production. A commercial ELISA kit (IL-2 Eli-pair, Diaclone Research, Besancon, France) was used to detect production of IL-2, from which dose response curves were obtained. The IC50 value was calculated as the concentration at which 50% of maximum IL-2 production after stimulation was inhibited versus a non-stimulation control.
Take `Cc1cc(-c2ccno2)sc1-c1ccc(NC(=O)c2c(F)cccc2F)cc1` [Compound 1, 2,6-difluoro-N-(4-(5-(isoxazol-5-yl)-3-methylthiophen-2-yl)phenyl)benzamide]: the 50% inhibitory concentration (IC50) (commonly the concentration at which inhibition is half-maximal) was 3 nM.

Take `Cc1cc(-c2nccs2)sc1-c1ccc(NC(=O)c2c(F)cccc2F)cc1` [Compound 2, 2,6-difluoro-N-(4-(3-methyl-5-(thiazol-2-yl)thiophen-2-yl)phenyl)benzamide]: the IC50 amounted to 7 nM.

In turn, `Cc1cc(-c2cncn2C)sc1-c1ccc(NC(=O)c2c(F)cccc2F)cc1` [Compound 3, 2,6-difluoro-N-(4-(3-methyl-5-(1-methyl-1H-imidazol-5-yl)thiophen-2-yl)phenyl)benzamide] had a half-inhibitory concentration (IC50) of 8 nM.

In turn, `Cc1sc(-c2cnco2)cc1-c1cnc(NC(=O)c2c(F)cccc2F)cn1` [Compound 4, 2,6-difluoro-N-(5-(2-methyl-5-(oxazol-5-yl)thiophen-3-yl)pyrazin-2-yl)benzamide] had a concentration for half-maximal inhibition (IC50) of 15 nM.

The molecule `Cc1sc(-c2cnco2)cc1-c1ccc(NC(=O)c2c(F)cccc2F)nc1` [Compound 5, 2,6-difluoro-N-(5-(2-methyl-5-(oxazol-5-yl)thiophen-3-yl)pyridin-2-yl)benzamide] displayed a half-inhibitory concentration (IC50) of 10 nM.

`Cc1cc(-c2cccnc2)sc1-c1ccc(NC(=O)c2c(F)cccc2F)cc1` [Compound 6, 2,6-difluoro-N-(4-(3-methyl-5-(pyridin-3-yl)thiophen-2-yl)phenyl)benzamide] registered an IC50 of 2 nM.

For the molecule `Cc1sc(-c2cccnc2)cc1-c1ccc(NC(=O)c2c(F)cccc2F)cc1` [Compound 7, 2,6-difluoro-N-(4-(2-methyl-5-(pyridin-3-yl)thiophen-3-yl)phenyl)benzamide], half-maximal inhibition (IC50) was put at 3 nM.

`Cc1sc(-c2nccs2)cc1-c1ccc(NC(=O)c2c(F)cccc2F)cc1` [Compound 8, 2,6-difluoro-N-(4-(2-methyl-5-(thiazol-2-yl)thiophen-3-yl)phenyl)benzamide] had a concentration for half-maximal inhibition (IC50) of 6 nM.

The molecule `Cc1sc(-c2nnco2)cc1-c1ccc(NC(=O)c2c(F)cccc2F)cc1` [Compound 9, 2,6-difluoro-N-(4-(2-methyl-5-(1,3,4-oxadiazol-2-yl)thiophen-3-yl)phenyl)benzamide] displayed an IC50 of 9 nM.

Molecule `Cc1sc(-c2cnco2)cc1-c1ccc(NC(=O)c2c(F)cccc2F)cn1` [Compound 10, 2,6-difluoro-N-(6-(2-methyl-5-(oxazol-5-yl)thiophen-3-yl)pyridin-3-yl)benzamide] displayed an IC50 of 31 nM.

In the case of `Cc1sc(-c2cnc[nH]2)cc1-c1ccc(NC(=O)c2c(F)cccc2F)cc1` [Compound 11, N-(4-(5-(1H-imidazol-5-yl)-2-methylthiophen-3-yl)phenyl)-2,6-difluorobenzamide], the IC50 stood at 16 nM.

Molecule `Cc1ccncc1-c1cc(-c2ccc(NC(=O)c3c(F)cccc3F)cc2)c(C)s1` [Compound 12, 2,6-difluoro-N-(4-(2-methyl-5-(4-methylpyridin-3-yl)thiophen-3-yl)phenyl)benzamide] yielded an IC50 of 9 nM.

The molecule `COc1ncc(Cl)cc1-c1cc(-c2ccc(NC(=O)c3c(F)cccc3F)cc2)c(C)s1` [Compound 13, N-(4-(5-(5-chloro-2-methoxypyridin-3-yl)-2-methylthiophen-3-yl)phenyl)-2,6-difluorobenzamide] returned an IC50 of 73 nM.

For the molecule `Cc1sc(-c2nccs2)cc1-c1ccc(NC(=O)c2c(F)cccc2F)nc1` [Compound 14, 2,6-difluoro-N-(5-(2-methyl-5-(thiazol-2-yl)thiophen-3-yl)pyridin-2-yl)benzamide], the IC50 is 8 nM.

With `Cc1sc(-c2nccs2)cc1-c1cnc(NC(=O)c2c(F)cccc2F)cn1` [Compound 15, 2,6-difluoro-N-(5-(2-methyl-5-(thiazol-2-yl)thiophen-3-yl)pyrazin-2-yl)benzamide], 10 nM corresponded to half-maximal inhibition (IC50).

For the molecule `Cc1sc(-c2cnc[nH]2)cc1-c1ccc(NC(=O)c2c(F)cccc2F)nc1` [Compound 16, N-(5-(5-(1H-imidazol-5-yl)-2-methylthiophen-3-yl)pyridin-2-yl)-2,6-difluorobenzamide], half-maximal inhibition (IC50) was put at 50 nM.

As to `Cc1sc(-c2cncn2C)cc1-c1ccc(NC(=O)c2c(F)cccc2F)nc1` [Compound 17, 2,6-difluoro-N-(5-(2-methyl-5-(1-methyl-1H-imidazol-5-yl)thiophen-3-yl)pyridin-2-yl)benzamide], the IC50 amounted to 25 nM.

In turn, `Cc1cnccc1C(=O)Nc1ccc(-c2cc(-c3cnco3)sc2C)cn1` [Compound 18, 3-methyl-N-(5-(2-methyl-5-(oxazol-5-yl)thiophen-3-yl)pyridin-2-yl)isonicotinamide] registered a half-maximal inhibitory concentration (IC50) of 17 nM.

The molecule `Cc1sc(-c2cnccc2Cl)cc1-c1ccc(NC(=O)c2c(F)cccc2F)cc1` [Compound 19, N-(4-(5-(4-chloropyridin-3-yl)-2-methylthiophen-3-yl)phenyl)-2,6-difluorobenzamide] came in with an IC50 of 3 nM.

`COc1ccncc1-c1cc(-c2ccc(NC(=O)c3c(F)cccc3F)cc2)c(C)s1` [Compound 20, 2,6-difluoro-N-(4-(5-(4-methoxypyridin-3-yl)-2-methylthiophen-3-yl)phenyl)benzamide] yielded an IC50 of 19 nM.

`Cc1sc(-c2cncn2C)cc1-c1cnc(NC(=O)c2c(F)cccc2F)cn1` [Compound 21, 2,6-difluoro-N-(5-(2-methyl-5-(1-methyl-1H-imidazol-5-yl)thiophen-3-yl)pyrazin-2-yl)benzamide] registered an IC50 of 27 nM.

Molecule `Cc1sc(-c2cnc[nH]2)cc1-c1cnc(NC(=O)c2c(F)cccc2F)cn1` [Compound 22, N-(5-(5-(1H-imidazol-5-yl)-2-methylthiophen-3-yl)pyrazin-2-yl)-2,6-difluorobenzamide] had a half-maximal inhibitory concentration (IC50) of 152 nM.

For the molecule `Cc1sc(-c2cncn2C)cc1-c1ccc(NC(=O)c2c(F)cccc2F)cc1` [Compound 23, 2,6-difluoro-N-(4-(2-methyl-5-(1-methyl-1H-imidazol-5-yl)thiophen-3-yl)phenyl)benzamide], the IC50 came out at 6 nM.

With `CCn1cncc1-c1cc(-c2ccc(NC(=O)c3c(F)cccc3F)cc2)c(C)s1` [Compound 25, N-(4-(5-(1-ethyl-1H-imidazol-5-yl)-2-methylthiophen-3-yl)phenyl)-2,6-difluorobenzamide], half-maximal inhibition (IC50) required 27 nM.

Staying with this assay, now noted: PHA 2.5 μg/mL, 20 hours, IL-2 ELISA, hydrochloride.
In the case of `Cc1sc(-c2cncn2C)cc1-c1ccc(NC(=O)c2c(F)cccc2F)cc1` [Compound 24, 2,6-difluoro-N-(4-(2-methyl-5-(1-methyl-1H-imidazol-5-yl)thiophen-3-yl)phenyl)benzamide hydrochloride], it took 3 nM to reach half-maximal inhibition (IC50).

The record behind these values is patent publication US20130236481A1, “HETEROCYCLE -ARYL COMPOUNDS FOR INFLAMMATION AND IMMUNE-RELATED USES” (SYNTA PHARMACEUTICALS CORP., priority 2007, published 2013).
